System: M. tuberculosis
Assay type: cell-based, Mycobacterium tuberculosis (laboratory strain H37Rv)
Details: peptide 10 µg/mL; for Time to Positivity (Days.Hours) Experiment 2a / Time to Positivity (Days.Hours) Experiment 2b / Time to Positivity (Days.Hours) Experiment 1a / Time to Positivity (Days.Hours) Experiment 1b / Effect on TTP of MTB in words: MGIT; for Time to Positivity (Days.Hours) Experiment 2a / Time to Positivity (Days.Hours) Experiment 2b: diluted inoculum; for Time to Positivity (Days.Hours) Experiment 2a: technical repeat 2a, TB control (no peptide) 15.01; for Time to Positivity (Days.Hours) Experiment 2b: technical repeat 2b, TB control (no peptide) 15.20; for Time to Positivity (Days.Hours) Experiment 1a / Time to Positivity (Days.Hours) Experiment 1b: less diluted inoculum; for Time to Positivity (Days.Hours) Experiment 1a: technical repeat 1a, TB control (no peptide) 7.02; for Time to Positivity (Days.Hours) Experiment 1b: technical repeat 1b, TB control (no peptide) 7.01; for Average % Faster than Control: overall average of the averages of experiments 1a/1b and 2a/2b, negative = slower

Row | Substance | Time to Positivity (Days.Hours) Experiment 2a | Time to Positivity (Days.Hours) Experiment 2b | Time to Positivity (Days.Hours) Experiment 1a | Time to Positivity (Days.Hours) Experiment 1b | Average % Faster than Control | Effect on TTP of MTB in words
1 | 3: peptide from the authors' library (WKWRVRVTI) [Peptide 3] | 14.22 Days.Hours | 15.02 Days.Hours | 6.08 Days.Hours | 6.17 Days.Hours | 4.0% | –
2 | 5: peptide from the authors' library; same sequence as P8/Designed * (FFIYVWRRR) [Peptide 5] | 14.06 Days.Hours | 14.16 Days.Hours | 5.21 Days.Hours | 6.08 Days.Hours | 8.8% | –
3 | 9: peptide from the authors' library; same sequence as P9/Designed (KRRWRIWLV) [Peptide 9] | 15.08 Days.Hours | 14.21 Days.Hours | 6.07 Days.Hours | 6.04 Days.Hours | 5.8% | –
4 | 12: peptide from the authors' library (RRRIKIRWY) [Peptide 12] | 14.08 Days.Hours | 14.22 Days.Hours | 6.14 Days.Hours | 5.20 Days.Hours | 10.2% | strong hormetic response
5 | 16: peptide from the authors' library (RLKRWWKFL) [Peptide 16] | 14.17 Days.Hours | 14.20 Days.Hours | 6.01 Days.Hours | 5.22 Days.Hours | 8.6% | –
6 | 20: peptide from the authors' library (KWKWWWRKI) [Peptide 20] | 14.01 Days.Hours | 14.16 Days.Hours | 6.11 Days.Hours | 6.00 Days.Hours | 8.3% | –
7 | 22: peptide from the authors' library (IRMRIRVLL) [Peptide 22] | 15.19 Days.Hours | 15.10 Days.Hours | 6.00 Days.Hours | 6.07 Days.Hours | 4.7% | –
8 | 29: peptide from the authors' library (RWRWWWRVY) [Peptide 29] | 15.12 Days.Hours | 15.01 Days.Hours | 6.13 Days.Hours | 6.00 Days.Hours | 4.9% | –
9 | 49: peptide from the authors' library (VRLRIRVRVIRK) [Peptide 49] | 15.12 Days.Hours | 15.02 Days.Hours | 5.22 Days.Hours | 6.06 Days.Hours | 6.2% | –
10 | 59: peptide from the authors' library (ILKWKRKWWKWRR) [Peptide 59] | 13.19 Days.Hours | 12.22 Days.Hours | 5.17 Days.Hours | 5.22 Days.Hours | 14.5% | –
11 | 60: peptide from the authors' library (ILKWKIFKWKWFR) [Peptide 60] | 14.19 Days.Hours | 14.16 Days.Hours | 6.03 Days.Hours | 6.02 Days.Hours | 7.9% | –
12 | 61: peptide from the authors' library (ILKWKTKWWKWFR) [Peptide 61] | 13.11 Days.Hours | 14.21 Days.Hours | 6.20 Days.Hours | 5.23 Days.Hours | 10.4% | –
13 | 62: peptide from the authors' library (ILKWKMFKWKWFR) [Peptide 62] | 16.20 Days.Hours | 17.16 Days.Hours | 6.07 Days.Hours | 7.02 Days.Hours | −3.4% | delayed TTP
14 | 63: peptide from the authors' library; same sequence as Indolicidin/Cow (ILPWKWPWWPWRR) [Peptide 63] | 17.01 Days.Hours | 17.10 Days.Hours | 6.22 Days.Hours | 6.22 Days.Hours | −5.5% | delayed TTP
15 | 64: peptide from the authors' library (RLARIVVIRVAR) [Peptide 64] | 15.21 Days.Hours | 16.13 Days.Hours | 6.19 Days.Hours | 6.16 Days.Hours | −1.4% | –
16 | 65: peptide from the authors' library (RGARIVVIRVAR) [Peptide 65] | 16.11 Days.Hours | 16.01 Days.Hours | 6.16 Days.Hours | 6.03 Days.Hours | 0.8% | –
17 | 66: peptide from the authors' library (RRARIVVIRVAR) [Peptide 66] | 17.06 Days.Hours | 17.16 Days.Hours | 6.05 Days.Hours | 6.16 Days.Hours | −3.5% | –
18 | 67: peptide from the authors' library (RLWRIVVIRVAR) [Peptide 67] | 16.00 Days.Hours | 16.05 Days.Hours | 6.19 Days.Hours | 6.11 Days.Hours | −0.4% | –
19 | 68: peptide from the authors' library (RLRRIVVIRVAR) [Peptide 68] | 15.00 Days.Hours | 15.23 Days.Hours | 6.09 Days.Hours | 6.17 Days.Hours | 2.3% | –
20 | 71: peptide from the authors' library (RLWRIVVIRVKR) [Peptide 71] | 14.01 Days.Hours | 14.02 Days.Hours | 6.04 Days.Hours | 6.06 Days.Hours | 9.4% | –

From paper PMC10536189 (Microorganisms, 2023)
